The results in this text go back to ChEMBL document CHEMBL1641373, “Trishomocubane as a scaffold for the development of selective dopamine transporter (DAT) ligands” (Bioorg Med Chem Lett, 2011).

Assay [1] deals with Sodium-dependent dopamine transporter (Homo sapiens, UniProt Q01959). As to the kind of experiment: Displacement of [3H]WIN-35428 form human DAT expressed in HEK cell membranes. Also noted: species or system HEK293.
Assay [2] addresses Sodium-dependent serotonin transporter (Homo sapiens, UniProt P31645). As to the kind of experiment: Displacement of [3H]citalopram from human SERT expressed in HEK cells. In kind it is cell-based, HEK293. Conditions: for inhibition: HEK293, concentration not given here. On the technique in general: Loss of bound radioactivity is the signal in a displacement assay; it reports binding, not function.

Assay [3] addresses T1, Alpha-2A adrenergic receptor (Homo sapiens) (UniProt P08913).
T1 sequence (whole entry): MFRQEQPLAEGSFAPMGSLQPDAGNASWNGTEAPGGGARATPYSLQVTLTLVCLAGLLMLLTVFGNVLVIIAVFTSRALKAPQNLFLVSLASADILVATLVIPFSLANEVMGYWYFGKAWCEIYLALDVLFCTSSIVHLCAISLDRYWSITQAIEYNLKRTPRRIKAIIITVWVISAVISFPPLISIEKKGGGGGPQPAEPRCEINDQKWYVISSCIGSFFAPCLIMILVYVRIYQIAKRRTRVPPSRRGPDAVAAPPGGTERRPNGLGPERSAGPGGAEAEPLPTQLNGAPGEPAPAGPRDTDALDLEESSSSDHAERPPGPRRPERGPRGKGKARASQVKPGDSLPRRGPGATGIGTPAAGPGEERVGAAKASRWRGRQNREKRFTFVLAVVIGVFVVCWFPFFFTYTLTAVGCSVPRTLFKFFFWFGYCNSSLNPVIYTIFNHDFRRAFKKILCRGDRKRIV
As to the kind of experiment: Inhibition of alpha2A adrenergic receptor at 10 uM.

Assay [4] deals with Beta-3 adrenergic receptor (Homo sapiens) (UniProt P13945). As to the kind of experiment: Inhibition of beta3 adrenergic receptor at 10 uM.
Beta-3 adrenergic receptor (Homo sapiens), sequence (P13945 whole entry, looked up): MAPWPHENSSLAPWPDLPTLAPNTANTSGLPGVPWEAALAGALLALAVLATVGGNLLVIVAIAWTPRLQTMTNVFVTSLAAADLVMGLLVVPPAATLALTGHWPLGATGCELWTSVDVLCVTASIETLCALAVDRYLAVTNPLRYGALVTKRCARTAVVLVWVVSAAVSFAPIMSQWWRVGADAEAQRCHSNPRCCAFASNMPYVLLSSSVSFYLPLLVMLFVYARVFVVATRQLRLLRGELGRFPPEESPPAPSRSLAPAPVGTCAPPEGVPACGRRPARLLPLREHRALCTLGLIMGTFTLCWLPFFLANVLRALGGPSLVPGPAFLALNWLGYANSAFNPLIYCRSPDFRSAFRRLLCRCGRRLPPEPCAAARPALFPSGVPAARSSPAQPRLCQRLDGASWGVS
Assay [5] concerns the target D(1A) dopamine receptor (Homo sapiens) (UniProt P21728). Description: Inhibition of dopamine D1 receptor at 10 uM.
Assay [6] concerns the target D(2) dopamine receptor (Homo sapiens) (UniProt P14416). Description: Inhibition of dopamine D2 receptor at 10 uM.
For assay [7], the target named is T2, D(4) dopamine receptor (Homo sapiens) (UniProt P21917).
T2 sequence (whole entry): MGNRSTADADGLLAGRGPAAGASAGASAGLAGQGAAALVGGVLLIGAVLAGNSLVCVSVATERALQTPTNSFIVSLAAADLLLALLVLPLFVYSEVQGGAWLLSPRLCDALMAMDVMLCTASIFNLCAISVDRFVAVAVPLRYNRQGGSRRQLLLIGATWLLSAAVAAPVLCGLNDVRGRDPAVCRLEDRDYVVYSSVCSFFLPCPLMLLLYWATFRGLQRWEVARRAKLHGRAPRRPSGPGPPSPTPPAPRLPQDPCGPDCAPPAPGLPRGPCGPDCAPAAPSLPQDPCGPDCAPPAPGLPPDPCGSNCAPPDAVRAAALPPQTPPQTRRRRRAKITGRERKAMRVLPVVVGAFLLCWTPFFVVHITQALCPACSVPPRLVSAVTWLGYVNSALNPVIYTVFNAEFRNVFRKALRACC
As to the kind of experiment: Inhibition of dopamine D4 receptor at 10 uM.

In assay [8] the target is Histamine H3 receptor (Homo sapiens) (UniProt Q9Y5N1). Description: Inhibition of H3 receptor at 10 uM.
Histamine H3 receptor (Homo sapiens), sequence (Q9Y5N1 whole entry): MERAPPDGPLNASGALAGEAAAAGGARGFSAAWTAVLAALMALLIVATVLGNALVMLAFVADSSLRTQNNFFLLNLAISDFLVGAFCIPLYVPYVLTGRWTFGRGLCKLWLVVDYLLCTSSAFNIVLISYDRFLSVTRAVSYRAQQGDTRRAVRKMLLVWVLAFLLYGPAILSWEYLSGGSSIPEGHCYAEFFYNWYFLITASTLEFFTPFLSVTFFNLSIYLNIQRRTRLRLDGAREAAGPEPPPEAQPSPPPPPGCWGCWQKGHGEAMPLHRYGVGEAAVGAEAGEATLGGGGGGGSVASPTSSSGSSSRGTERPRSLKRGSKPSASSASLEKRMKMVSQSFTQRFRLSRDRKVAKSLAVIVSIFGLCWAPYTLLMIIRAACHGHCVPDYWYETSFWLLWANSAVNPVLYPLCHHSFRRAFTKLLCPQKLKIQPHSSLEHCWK
Assay [9] addresses 5-hydroxytryptamine receptor 1B (Homo sapiens) (UniProt P28222). As to the kind of experiment: Inhibition of 5HT1B receptor at 10 uM.
Assay [10] addresses 5-hydroxytryptamine receptor 1D (Homo sapiens) (UniProt P28221). Description: Inhibition of 5HT1D receptor at 10 uM.
Assay [11] concerns the target 5-hydroxytryptamine receptor 7 (Homo sapiens) (UniProt P34969). Description: Inhibition of 5HT7 receptor at 10 uM.
For assay [12], the target named is T3, Muscarinic acetylcholine receptor M1 (Homo sapiens) (UniProt P11229).
T3 sequence (whole entry): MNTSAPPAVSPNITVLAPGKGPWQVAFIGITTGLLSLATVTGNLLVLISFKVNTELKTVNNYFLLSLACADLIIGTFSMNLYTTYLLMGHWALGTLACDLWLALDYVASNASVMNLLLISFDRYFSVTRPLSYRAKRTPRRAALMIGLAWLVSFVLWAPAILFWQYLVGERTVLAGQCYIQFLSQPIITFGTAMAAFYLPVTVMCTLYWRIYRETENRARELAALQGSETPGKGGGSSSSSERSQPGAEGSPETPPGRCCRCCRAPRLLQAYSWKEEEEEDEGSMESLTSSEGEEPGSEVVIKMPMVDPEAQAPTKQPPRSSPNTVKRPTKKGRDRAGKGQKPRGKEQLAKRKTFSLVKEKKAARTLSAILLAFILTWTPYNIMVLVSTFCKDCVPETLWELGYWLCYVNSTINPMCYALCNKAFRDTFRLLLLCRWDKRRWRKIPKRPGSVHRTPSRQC
As to the kind of experiment: Inhibition of muscarinic M1 receptor at 10 uM.

Assay [13] has as its target T4, Muscarinic acetylcholine receptor M2 (Homo sapiens) (UniProt P08172).
T4 sequence (whole entry): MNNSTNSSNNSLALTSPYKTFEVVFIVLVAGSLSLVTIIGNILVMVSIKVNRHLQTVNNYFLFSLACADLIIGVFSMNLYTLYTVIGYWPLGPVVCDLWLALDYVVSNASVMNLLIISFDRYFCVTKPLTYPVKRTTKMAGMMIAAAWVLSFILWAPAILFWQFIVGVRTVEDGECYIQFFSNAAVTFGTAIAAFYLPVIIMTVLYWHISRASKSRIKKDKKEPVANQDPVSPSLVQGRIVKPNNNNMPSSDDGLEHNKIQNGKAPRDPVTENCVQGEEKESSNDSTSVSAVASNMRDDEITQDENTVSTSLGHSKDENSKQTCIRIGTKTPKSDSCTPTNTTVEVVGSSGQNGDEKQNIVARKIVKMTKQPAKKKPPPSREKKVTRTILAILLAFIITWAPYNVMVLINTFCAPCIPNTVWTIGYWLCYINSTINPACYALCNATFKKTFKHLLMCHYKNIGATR
As to the kind of experiment: Inhibition of muscarinic M2 receptor at 10 uM.

The target in assay [14] is Delta-type opioid receptor (Homo sapiens) (UniProt P41143). Description: Inhibition of delta opioid receptor at 10 uM.
Delta-type opioid receptor (Homo sapiens), sequence (P41143 whole entry): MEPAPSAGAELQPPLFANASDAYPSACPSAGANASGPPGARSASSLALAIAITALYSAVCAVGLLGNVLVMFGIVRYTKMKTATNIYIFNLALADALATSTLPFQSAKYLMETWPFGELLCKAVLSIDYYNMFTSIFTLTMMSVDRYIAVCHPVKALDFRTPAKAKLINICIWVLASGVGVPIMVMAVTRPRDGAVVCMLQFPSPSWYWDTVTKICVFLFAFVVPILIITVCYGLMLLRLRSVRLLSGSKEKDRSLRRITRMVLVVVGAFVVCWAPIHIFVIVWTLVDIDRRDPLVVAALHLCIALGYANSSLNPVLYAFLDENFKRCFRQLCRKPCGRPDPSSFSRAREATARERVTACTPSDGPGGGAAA
Assay [15] concerns the target Kappa-type opioid receptor (Homo sapiens) (UniProt P41145). Description: Inhibition of kappa opioid receptor at 10 uM.
Assay [16] has as its target Mu-type opioid receptor (Homo sapiens) (UniProt P35372). As to the kind of experiment: Inhibition of mu opioid receptor at 10 uM.

Sodium-dependent dopamine transporter, sequence (Q01959 whole entry): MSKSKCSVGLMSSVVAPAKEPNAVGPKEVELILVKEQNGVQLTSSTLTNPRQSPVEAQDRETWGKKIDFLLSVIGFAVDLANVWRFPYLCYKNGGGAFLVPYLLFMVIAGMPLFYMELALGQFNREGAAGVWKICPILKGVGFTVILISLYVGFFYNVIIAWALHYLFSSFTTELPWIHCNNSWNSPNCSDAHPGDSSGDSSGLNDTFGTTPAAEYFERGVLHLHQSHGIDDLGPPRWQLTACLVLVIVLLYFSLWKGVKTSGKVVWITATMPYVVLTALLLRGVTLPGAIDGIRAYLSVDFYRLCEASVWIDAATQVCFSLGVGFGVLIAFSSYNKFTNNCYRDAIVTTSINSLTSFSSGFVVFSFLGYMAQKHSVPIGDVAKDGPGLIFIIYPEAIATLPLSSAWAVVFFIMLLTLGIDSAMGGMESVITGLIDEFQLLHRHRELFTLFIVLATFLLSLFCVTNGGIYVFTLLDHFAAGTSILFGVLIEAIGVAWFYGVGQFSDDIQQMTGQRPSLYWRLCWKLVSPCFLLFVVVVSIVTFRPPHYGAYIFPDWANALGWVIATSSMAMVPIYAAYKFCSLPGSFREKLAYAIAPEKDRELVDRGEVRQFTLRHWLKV
Kappa-type opioid receptor (Homo sapiens), sequence (P41145 whole entry): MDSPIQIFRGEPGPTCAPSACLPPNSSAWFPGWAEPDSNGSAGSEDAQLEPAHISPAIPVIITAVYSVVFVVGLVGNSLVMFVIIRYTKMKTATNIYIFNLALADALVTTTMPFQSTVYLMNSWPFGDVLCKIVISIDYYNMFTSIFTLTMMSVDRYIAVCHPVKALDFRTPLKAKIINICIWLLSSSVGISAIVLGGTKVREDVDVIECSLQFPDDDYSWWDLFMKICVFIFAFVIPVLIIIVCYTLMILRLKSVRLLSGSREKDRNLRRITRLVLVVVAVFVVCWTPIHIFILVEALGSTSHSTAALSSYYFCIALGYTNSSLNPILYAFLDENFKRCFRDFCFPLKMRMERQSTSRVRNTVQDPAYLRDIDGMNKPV
Mu-type opioid receptor (Homo sapiens), sequence (P35372 whole entry): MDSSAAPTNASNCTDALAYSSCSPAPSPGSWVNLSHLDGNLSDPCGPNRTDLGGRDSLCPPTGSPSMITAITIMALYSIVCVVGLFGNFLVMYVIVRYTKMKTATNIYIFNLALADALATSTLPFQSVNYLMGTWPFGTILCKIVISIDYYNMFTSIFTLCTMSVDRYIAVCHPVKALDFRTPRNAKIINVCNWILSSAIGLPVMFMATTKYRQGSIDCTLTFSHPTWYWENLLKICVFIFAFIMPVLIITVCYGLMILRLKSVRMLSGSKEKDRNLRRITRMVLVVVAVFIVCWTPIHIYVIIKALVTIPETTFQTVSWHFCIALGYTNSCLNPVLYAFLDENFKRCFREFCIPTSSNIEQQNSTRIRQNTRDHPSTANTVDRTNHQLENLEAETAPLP
D(1A) dopamine receptor (Homo sapiens), sequence (P21728 whole entry): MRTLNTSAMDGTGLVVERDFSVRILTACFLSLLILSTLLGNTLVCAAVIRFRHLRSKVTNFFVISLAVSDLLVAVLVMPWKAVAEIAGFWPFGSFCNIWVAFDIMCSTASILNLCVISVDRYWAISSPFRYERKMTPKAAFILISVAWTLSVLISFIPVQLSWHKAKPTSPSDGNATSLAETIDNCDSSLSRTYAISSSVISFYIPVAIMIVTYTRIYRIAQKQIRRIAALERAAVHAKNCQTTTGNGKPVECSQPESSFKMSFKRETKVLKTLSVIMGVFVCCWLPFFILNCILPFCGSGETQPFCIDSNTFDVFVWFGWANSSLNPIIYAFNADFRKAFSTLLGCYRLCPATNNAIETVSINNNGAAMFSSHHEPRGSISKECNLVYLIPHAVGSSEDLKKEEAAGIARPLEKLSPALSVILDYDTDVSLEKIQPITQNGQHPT
5-hydroxytryptamine receptor 1D (Homo sapiens), sequence (P28221 whole entry): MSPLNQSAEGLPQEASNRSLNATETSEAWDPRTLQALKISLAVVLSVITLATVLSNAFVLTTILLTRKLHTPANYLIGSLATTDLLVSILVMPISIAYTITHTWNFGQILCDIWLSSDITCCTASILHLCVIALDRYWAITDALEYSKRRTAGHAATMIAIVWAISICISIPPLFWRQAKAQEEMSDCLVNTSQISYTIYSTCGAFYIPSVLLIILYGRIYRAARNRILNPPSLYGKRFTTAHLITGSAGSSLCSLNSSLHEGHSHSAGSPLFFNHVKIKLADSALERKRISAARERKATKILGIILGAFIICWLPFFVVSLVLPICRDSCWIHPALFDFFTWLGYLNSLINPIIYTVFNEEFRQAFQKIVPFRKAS
5-hydroxytryptamine receptor 7 (Homo sapiens), sequence (P34969 whole entry): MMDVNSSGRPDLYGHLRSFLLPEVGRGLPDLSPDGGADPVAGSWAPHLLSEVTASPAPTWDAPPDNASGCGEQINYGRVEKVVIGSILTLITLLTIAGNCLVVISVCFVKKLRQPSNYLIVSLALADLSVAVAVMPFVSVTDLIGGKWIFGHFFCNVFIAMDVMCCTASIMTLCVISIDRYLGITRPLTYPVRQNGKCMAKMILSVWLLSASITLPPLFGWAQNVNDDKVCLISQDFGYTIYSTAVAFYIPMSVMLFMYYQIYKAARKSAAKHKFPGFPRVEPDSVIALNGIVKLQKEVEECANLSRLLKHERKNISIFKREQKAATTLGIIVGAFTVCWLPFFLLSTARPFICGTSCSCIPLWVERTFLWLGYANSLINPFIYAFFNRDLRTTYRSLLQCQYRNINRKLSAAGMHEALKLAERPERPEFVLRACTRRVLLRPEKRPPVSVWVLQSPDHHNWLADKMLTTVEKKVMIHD
5-hydroxytryptamine receptor 1B (Homo sapiens), sequence (P28222 whole entry): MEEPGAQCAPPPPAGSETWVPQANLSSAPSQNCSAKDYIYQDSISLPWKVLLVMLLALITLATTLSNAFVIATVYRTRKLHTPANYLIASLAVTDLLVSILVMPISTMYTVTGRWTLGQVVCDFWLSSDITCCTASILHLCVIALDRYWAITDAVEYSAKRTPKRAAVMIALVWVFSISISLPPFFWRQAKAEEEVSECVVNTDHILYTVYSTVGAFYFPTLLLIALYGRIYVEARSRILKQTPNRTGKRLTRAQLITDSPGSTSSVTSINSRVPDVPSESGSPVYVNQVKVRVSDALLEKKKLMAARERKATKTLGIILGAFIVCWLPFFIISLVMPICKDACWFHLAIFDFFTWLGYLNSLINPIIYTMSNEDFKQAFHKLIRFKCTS
D(2) dopamine receptor (Homo sapiens), sequence (P14416 whole entry): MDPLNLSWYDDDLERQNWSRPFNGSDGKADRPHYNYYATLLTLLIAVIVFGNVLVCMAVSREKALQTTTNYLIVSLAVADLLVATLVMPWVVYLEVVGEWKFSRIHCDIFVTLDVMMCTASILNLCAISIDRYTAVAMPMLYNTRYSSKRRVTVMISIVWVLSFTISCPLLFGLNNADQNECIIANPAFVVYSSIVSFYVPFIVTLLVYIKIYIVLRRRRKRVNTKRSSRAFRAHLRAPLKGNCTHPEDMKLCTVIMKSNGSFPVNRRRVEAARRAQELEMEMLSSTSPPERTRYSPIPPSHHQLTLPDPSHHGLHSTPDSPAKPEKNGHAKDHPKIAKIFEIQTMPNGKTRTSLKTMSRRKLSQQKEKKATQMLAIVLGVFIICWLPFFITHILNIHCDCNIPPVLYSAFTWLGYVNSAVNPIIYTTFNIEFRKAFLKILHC

As usually defined, the Ki is a measure of affinity in units of concentration, obtained from inhibition or displacement. A lower Ki goes with a stronger hold on the target. In general, inhibition refers to the relative decrease from the control value, in per cent. A low value points to little suppression. In the case of `Fc1cccc(CN[C@H]2C3C4CC5C6C4CC3C6C52)c1` (some centres not stated), the inhibition constant (Ki) in assay [1] was 3440 nM; in assay [2] it was over 10000 nM. In addition, the inhibition in assay [3], in assay [4], in assay [5], in [6], in assay [7] and in [8] was under 50% throughout. For the same compound, the inhibition in [9], in assay [10], in assay [11], in assay [12], in [13] and in [14] was under 50% in each case. Also, the inhibition in assay [15] and in assay [16] was under 50% in each case.

As for `CN(Cc1cccc(F)c1)[C@H]1C2C3CC4C5C3CC2C5C41` (some centres not stated), the Ki in assay [1] was determined as 1.2 nM. Also, the inhibition in assay [2], in assay [3], in assay [4], in assay [5], in assay [6] and in assay [7] was under 50% in each case. Besides, the inhibition in assay [8], in [9], in assay [10], in assay [11], in assay [12] and in assay [13] was under 50% throughout. In addition, the inhibition in assay [14], in assay [15] and in [16] was under 50% throughout.

Take `Fc1cccc(CCN[C@H]2C3C4CC5C6C4CC3C6C52)c1` (some centres not stated): the Ki in assay [1] was 1680 nM; in assay [2], over 10000 nM. Also, the inhibition in assay [4], in assay [5], in [6], in [7], in [8] and in assay [9] was under 50% in each case. The inhibition in assay [10], in [11], in assay [12], in assay [14], in assay [15] and in [16] was under 50% throughout.

For `CN(CCc1cccc(F)c1)[C@H]1C2C3CC4C5C3CC2C5C41` (some centres not stated), in [1], the affinity, expressed as Ki, was 101 nM. The inhibition in assay [2], in assay [3], in [4], in [5], in assay [6] and in assay [7] was under 50% throughout. Besides, the inhibition in [8], in assay [9], in assay [10], in [11], in assay [12] and in assay [13] was under 50% each time. The inhibition in assay [14], in [15] and in [16] was under 50% throughout.
